The values that follow come from patent publication US11136315B2, “CXCR2 antagonist” (MEDSHINE DISCOVERY INC., priority 2018, dated 2021).

As usually defined, the bioavailability is the share of a dose that reaches the circulation, judged against a reference dose that is usually intravenous.

Data set [1] is described as follows: Pharmacokinetic and tissue distribution in Lewis rats. It is filed as in vivo. Particulars: male, rat, lung / plasma, oral, 5 mg/kg, gavage 5 mpk, read-out: Ratio in lung blood. As to the method:
The pharmacokinetic and tissue distribution of the compounds in Lewis rats was tested.
Lewis rats (male, 202-239 g, 7-9 weeks old, Beijing Viton Lihua)
Formulations containing an aqueous solution of 1% hydroxypropyl methylcellulose/0.2% Tween 80 as the vehicle were administered by gavage (5 mpk). Before the animal experiment, all animals were fasted overnight, and fed 4 hours after administration; all animals were free to drink water. The time points of blood collection: danirixin administration group: 0.25, 1, 8 hours; gavage administration group: 0.5, 1, 4 hours.
(§1) Whole blood samples (0.2 mL) were collected through the saphenous vein (or other suitable blood collection sites) at the prescribed time points, and all blood samples were added to labeled plastic centrifuge tubes containing K2-EDTA anticoagulant. After the blood samples were collected, the plasma was separated by centrifugation, immediately placed in dry ice and stored at low temperature. All samples were analyzed by LC-MS/MS with a minimum detection limit of 2 nM. The non-compartmental model of WinNonlin™ Version 6.3 (Pharsight, Mountain View, Calif.) pharmacokinetic software was used to process the mean plasma concentration, and the log-linear trapezoid method was used to calculate the pharmacokinetic parameters.

In a further data set the test system is PPE-induced COPD model. The data set can be described thus: Therapeutic effect on PPE-induced COPD model, flow cytometry of inflammatory cells. The data set is classed as in vivo, C57BL/6 mice. Particulars: PPE-induced mouse COPD model, daily gavage 4 weeks, high dose (120 mpk). Here is the method: The therapeutic effect of the compounds on PPE-induced COPD model in C57BL/6 mice was tested. Animals: C57BL/6 mice (female, 17.5-18.5 g, 6-8 weeks old) Drugs: Porcine pancreas elastase (PPE) (sigma, 0.068 U/μL); compound 1 in FIG. 1, FIG. 2 and FIG. 3 is danirixin; compound 2 is WX006A. Grouping: (1) COPD model group (porcine pancreatic elastase model group) • (2) PPE+ danirixin (40 mpk) • (3) PPE+ danirixin (120 mpk) • (4) PPE+WX006A (4 mpk) • (5) PPE+WX006A (12 mpk) 1. Modeling method: PPE was administered through by drip transfusion at the back of the tongue. 2. Administration method: an aqueous solution of 1% DMSO/1% hydroxypropyl methylcellulose/0.2% Tween 80 was used as the vehicle; the animals were daily administered with a volume of 200 μL/animal by gavage for 4 weeks. 3. End point of the experiment: On the 29th day, the mice were euthanized, samples were collected, and flow cytometry was performed. The blood, alveolar lavage fluid and lung tissue of the mice were collected after 4 weeks of administration to determine the percentage of inflammatory cells. 1) Alveolar lavage cells: the mice were euthanized. […] 3) The cells were counted and the cell suspensions were transferred into flow cytometry tubes. […] 5) After washing the cells, the percentage of neutrophils and monocytes in CD45^+ cells was determined using a flow cytometer.
A general note: In flow cytometry, cells or beads pass a laser one at a time.

The nature of data set [2]: Pharmacokinetic evaluation in C57BL/6 mice. It is filed as in vivo. Particulars: male, mouse, plasma. As to the method: The pharmacokinetic parameters of the compounds in C57BL/6 mice were investigated.
C57BL/6 mice (male, 18-30 g, 7-9 weeks old, Shanghai Lingchang Biotechnology Co., Ltd.)
Formulations containing an aqueous solution of 1% DMSO/10% hydroxypropyl-β-cyclodextrin as the vehicle were administered by intravenous injection (1 mpk), formulations containing an aqueous solution of 1% DMSO/1% hydroxypropyl methylcellulose/0.2% Tween 80 as the vehicle were administered by gavage (5 mpk). Before the animal experiment, all animals were fasted, and fed 4 hours after administration; all animals were free to drink water. The time points of blood collection: intravenous injection administration group: 0.083, 0.25, 0.5, 1, 2, 4, 6, 8 and 24 hours; gavage administration group: 0.25, 0.5, 1, 2, 4, 6, 8 and 24 hours.
as §1, with “(0.03” for “(0.2”, “isolated” for “separated”, “linear-log” for “log-linear”

Take `Cc1c(F)cccc1NC(=O)Nc1ccc(Cl)c(S(=O)(=O)[C@H]2CCCNC2)c1O` [Danirixin, danirixin, reference compound]: in data set [1], the Kp was 1.57. In the data set on PPE-induced COPD model, the “proportion of monocytes in the alveolar lavage fluid” value is listed as “significant effect of reducing” and the “proportion of neutrophils in the alveolar lavage fluid” value is reported as “significant effect of reducing”. The molecule further showed a clearance in data set [2] (intravenous 1 mpk / gavage 5 mpk study) of 2.55 L/h/kg. Also, the half-life in data set [2] (intravenous 1 mpk / gavage 5 mpk study, read-out: Half-life T1/2 (converted)) is 7.43 h. For the same molecule, the AUC in data set [2] (intravenous 1 mpk / gavage 5 mpk study, route not stated, unit printed shifted under first column, read-out: Area under the drug concentration time curve (AUC)) turned out to be 1580 nM·h. Also, in data set [2] (po, 5 mg/kg, gavage 5 mpk vs intravenous 1 mpk, read-out: Bioavailability (F)), the bioavailability is 34.3%.
